“Also recorded” adds a separate entry of the source.
Assays:
[1] = test system: type II collagen arthritis model in apes; experiment: Type II collagen arthritis model in apes, intraarticular administration; format: in vivo, apes (macaque); details: for effective ratio: NF-κB decoy 10 mg/joint at two-week intervals, type II collagen articulitis model in apes; for change of the joints on X-ray photographs (synovial inflammation, joint swelling, joint cartilage, osteoclasis), FIG. 1: simian collagen arthritis model, radiograph
osteoarthritis rat model = experiment: Osteoarthritis model using rats, intraarticular administration, joint section slides (FIG. 2); details: listed as NF-κB decoys

5′-CATGTCGTCACTGCGCTCAT-3′ (SEQ ID NO: 7); and 5′-ATGAGCGCAGTGACGACATG-3′ (SEQ ID NO: 8) (listed as DNA, chemistry not given here) [scrambled decoy, reference compound]
effective ratio [1]: 1/4
change of the joints on X-ray photographs (synovial inflammation, joint swelling, joint cartilage, osteoclasis), FIG. 1 [1]: no effects
change of the joints on X-ray photographs (synovial inflammation, joint swelling, joint cartilage, osteoclasis), FIG. 1 ([1]; listed as scrambled decoys): No effects

5′-CCTTGAAGGGATTTCCCTCC-3′ (SEQ ID NO: 1) (chemistry not given here) [NF-κB decoy]
effective ratio [1]: 3/4
change of the joints on X-ray photographs (synovial inflammation, joint swelling, joint cartilage, osteoclasis), FIG. 1 ([1]; listed as decoy of the present invention): significant improvements
change of the joints on X-ray photographs (synovial inflammation, joint swelling, joint cartilage, osteoclasis), FIG. 1 ([1]; listed as decoys of the present invention): significant improvement
effect on joint (section slide photographs), FIG. 2 (osteoarthritis rat model; administration of 10 mg of decoy): significant improvement; also recorded: significant effects
effect on joint (section slide photographs), FIG. 2 (osteoarthritis rat model; administration of 30 mg of decoy): eliminated the joint inflammation; also recorded: destroyed the articulitis
effect compared with that of steroid, FIG. 2 (osteoarthritis rat model; decoy 10 mg and 30 mg versus steroid): exceeded that of steroids; also recorded: beyond those attained by the steroid

From US20060241066A1, “Decoy composition for treating and preventing inflammatory disease” (priority 2002, published 2006)
